From US10328029B2, “Pharmaceutical composition” (Cycle Pharmaceuticals, priority 2014, dated 2019)
“Also recorded” adds a separate entry of the source.

Experiments:
Format in all cases: physicochemical
[1] = Excipient compatibility: nitisinone mixed with fillers/lubricants, stored at 40° C./75% RH, cyclised impurity by HPLC
Protocol: In order to identify suitable excipients to develop a temperature stable formulation, 4 standard fillers and 5 lubricants were mixed with nitisinone and stored under accelerated conditions for 1 week and 3 weeks. 10 preparations for each excipient were prepared by weighing approximately 10 mg of nitisinone and 500 mg of the excipient into a glass vial and mixing together by gentle swirling. To 5 lots of preparations, 50 μl of water was added to wet the sample. For a control, 10 preparations of the drug substance were prepared by weighing approximately 10 mg nitisinone into a suitable glass vial and to 5 lots of preparations, 50 μl of water was added to wet the sample.
HPLC analysis was used to quantify the relative amount of the cyclised impurity (RRT 0.7) for each formulation at each time point (Tables 7 and 8).
(§1) In the foregoing examples, the HPLC conditions were as follows: […]

[2] = API stability study of nitisinone under long-term and accelerated storage (HPLC)
Protocol: Data provided by the stability testing programme was conducted with the substance under investigation stored in the actual packaging used for storage and distribution. This was to determine if the substance remained compliant with the ICH specification criteria when tested over the period of its shelf life plus one year.
A sample of approximately 150 g of substance was used for the testing programme, with individual samples being approximately 7 g in size. The test was designed to simulate the product package, i.e. the sample was packed in a polythene bag, sealed and then placed inside another polythene bag liner. The sample was then held in a fibreboard cask with a fibreboard lid.
The sample was stored in an incubator maintained at 25° C.±2° C./60%±5% relative humidity (RH), and 40° C.±2° C./75%±5% RH.
After testing of an initial sample, a sample was tested at certain time intervals (Table 6), i.e. monthly (0 m, 1 m, 2 m, etc.).
There was no decrease in purity and the cyclised impurity remained below the identification threshold (0.10%) throughout the stability testing (measured by HPLC).
as §1

[3] = Process stability of nitisinone in acetone, in water and on drying (HPLC purity)
Protocol: It is a requirement of GMP manufacturing that the final recrystallisation includes a filtration through a polishing filter to remove particulates, and so the GMP process would involve filtration of the hot acetone solution. This means that it is likely that the solution of Nitisinone in acetone at 45° C. could be held at elevated temperature for a prolonged period of time. The stability of stage 1 at 45° C. was tested over a 6 hour period to confirm that the Nitisinone would not degrade under these conditions (Table 4). […] Therefore, acetone could be used in the hot filtration step of the GMP process.
On scale-up, drying from water can often take much longer than on lab scale and could potentially result in degradation of the product, especially with a product that could potentially be prone to hydrolysis. Following filtration of Nitisinone from the final recrystallisation, the filter-cake was washed with water to remove the residual mother liquors. Due to its high solubility in acetone and other organic solvents, a solvent wash was not appropriate as high yield losses would likely be incurred. A water wash also helped remove residual inorganics. Drying studies were therefore carried out to determine the stability of the recrystallised material and try to ensure that there would be no unexpected degradation during the drying phase of the scale-up manufacture (Table 5).
Two separate batches were heated over a 60 hour period with purity and KF values taken (entries 1-10). […] A sample of Nitisinone was suspended in water and heated at 40° C. with no vacuum for 60 hours (entries 11-13), to simulate poor drying. […] A second sample was wetted each morning and dried under vacuum overnight to study the effect of repeatedly wetting and drying the sample (entries 14-19).

O=C1CCCC(=O)C1C(=O)c1ccc(C(F)(F)F)cc1[N+](=O)[O-] [Nitisinone, 2-[2-nitro-4-(trifluoromethyl)benzoyl] cyclohexane-1,3-dione]
Cyclised Impurity - RRT 0.7 ([1]; 1 week, Dry): 0.02 norm %
Cyclised Impurity - RRT 0.7 ([1]; 1 week, Wet (50 μl water)): 0.07 norm %
Cyclised Impurity - RRT 0.7 ([1]; 3 weeks, Dry): 0.13 norm %
Cyclised Impurity - RRT 0.7 ([1]; 3 weeks, Wet (50 μl water)): 0.20 norm %
Cyclised Impurity - RRT 0.7 ([1]; Initial, about 10 mg nitisinone + 500 mg excipient): 0.01 norm %
API stability with respect to cyclised impurity (in words) ([2]; 25° C./60% RH and 40° C./75% RH, listed as API): no formation of the aforementioned cyclised impurity was observed; also recorded: no deviation from specification
Stability of API over time ([2]; 25° C./60% RH, 0 m): 99.90% w/w
Stability of API over time ([2]; 25° C./60% RH, 1 m): 99.87% w/w
Stability of API over time ([2]; 25° C./60% RH, 2 m): 99.88% w/w
Stability of API over time ([2]; 25° C./60% RH, 3 m): 99.91% w/w
Stability of API over time ([2]; 25° C./60% RH, 6 m): 99.91% w/w
Stability of API over time ([2]; 40° C./75% RH, 0 m): 99.90% w/w
Stability of API over time ([2]; 40° C./75% RH, 1 m): 99.89% w/w
Stability of API over time ([2]; 40° C./75% RH, 2 m): 99.88% w/w
Stability of API over time ([2]; 40° C./75% RH, 3 m): 99.92% w/w
Stability of API over time ([2]; 40° C./75% RH, 6 m): 99.96% w/w
stability of stage 1 nitisinone in acetone (purity, in words) ([3]; acetone, 45° C., over a 6 hour period): No loss of purity was observed
stability of Nitisinone in water (purity, in words) ([3]; suspended in water, heated at 40° C., no vacuum, 60 hours): No loss of purity was observed
stability of recrystallised Nitisinone to extended drying (purity, in words) ([3]; two batches heated over a 60 hour period): little to no loss in purity
